Results: patent publication US5672586A, “Herpes ribonucleotide reductase inhibitors” (Bio-Mega/Boehringer Ingelheim Research, Inc., priority 1995, dated 1997)
Like-named read-outs stand apart in the source and are kept apart here.

What was measured:
HSV-1 strain F = experiment: Inhibition of HSV-1 replication in cell culture (BHK-21 cells, ELISA of glycoprotein C), strain F; assay type: cell-based, Herpes simplex virus type 1; conditions: 24 hours incubation, read-out: EC50 (inhibition of viral replication)
Experimental: BHK-21 cells clone 13 (ATCC CCL10) were incubated for two days in 850 cm^2 roller bottles (2×10^7 cells/bottle) with alpha-MEM medium (Gibco Canada Inc., Burlington, Ontario, Canada) supplemented with 8% (v/v) fetal bovine serum (FBS, Gibco Canada, Inc.). The cells were trypsinized and then transferred to fresh media in a 96-well microtiter plate at a density of 50,000 cells per well in 100 μL. The cells were incubated at 37° for a period of 6 hours to allow adhesion to the plate. The cells then were washed once with 100 μL of alpha-MEM supplemented with 0.5% FBS (v/v) and incubated with 100 μL of the same media for 3 days. After this period of serum starvation, the low serum media was removed. The cells were washed once with 100 μL BBMT and incubated for two hours in 100 μL of the same media. {Note: BBMT medium is described by P. Brazeau et al., Proc. Natl. Acad. Sci. U.S.A., 79, 7909 (1980).} Thereafter, the cells were infected with HSV-1 strain F or KOS (multiplicity of infection =0.05 PFU/cell) in 50 μL of BBMT medium. Following one hour of virus absorption at 37°, the media was removed and the cells were washed with BBMT (2×100 μL). The cells were incubated with or without 100 μL of the appropriate concentration of test reagent in BBMT medium. After 24 hours of incubation at 37°, the extent of viral replication was determined by an ELISA assay; for instance, the following assay that detects the late glycoprotein C of HSV-1. Cells were fixed in a microtiter plate with 100 μL of 0.063% glutaraldehyde in phosphate buffered saline for 30 minutes at room temperature. The microtiter plate was then washed once with casein blocking solution and blocked with 200 μL of the same solution for one hour at room temperature. […] Color development was monitored at 450 nm using a microplate spectrophotometer. […] The following TABLE II provides examples of the results obtained when compounds of formula 1 were evaluated according to the cell culture assay (HSV-1 strain F) of this example.

HSV-1 KOS strain = experiment: Synergistic studies of acyclovir and the title compound of example 9 in the cell culture assay, HSV-1 KOS strain; assay type: cell-based, Herpes simplex virus type 1; conditions: for EC50: MOI = 0.05 PFU/cell
Experimental: BHK-21 cells clone 13 (ATCC CCL10) were incubated for two days in 850 cm^2 roller bottles (2×10^7 cells/bottle) with alpha-MEM medium (Gibco Canada Inc., Burlington, Ontario, Canada) supplemented with 8% (v/v) fetal bovine serum (FBS, Gibco Canada, Inc.). The cells were trypsinized and then transferred to fresh media in a 96-well microtiter plate at a density of 50,000 cells per well in 100 μL. The cells were incubated at 37° for a period of 6 hours to allow adhesion to the plate. The cells then were washed once with 100 μL of alpha-MEM supplemented with 0.5% FBS (v/v) and incubated with 100 μL of the same media for 3 days. After this period of serum starvation, the low serum media was removed. The cells were washed once with 100 μL BBMT and incubated for two hours in 100 μL of the same media. {Note: BBMT medium is described by P. Brazeau et al., Proc. Natl. Acad. Sci. U.S.A., 79, 7909 (1980).}
Thereafter, the cells were infected with HSV-1 strain F or KOS (multiplicity of infection =0.05 PFU/cell) in 50 μL of BBMT medium. Following one hour of virus absorption at 37°, the media was removed and the cells were washed with BBMT (2×100 μL). The cells were incubated with or without 100 μL of the appropriate concentration of test reagent in BBMT medium. After 24 hours of incubation at 37°, the extent of viral replication was determined by an ELISA assay; for instance, the following assay that detects the late glycoprotein C of HSV-1.
Cells were fixed in a microtiter plate with 100 μL of 0.063% glutaraldehyde in phosphate buffered saline for 30 minutes at room temperature. The microtiter plate was then washed once with casein blocking solution and blocked with 200 μL of the same solution for one hour at room temperature. Thereafter, 100 μL of mAB Cll recognizing HSV-1 gC envelope protein [see E. Trybala et al., Journal of General Virology, 75, 743 (1994)] was added to each well for two hours at room temperature. The plate was washed three times with phosphate buffered saline containing 0.05% polyoxyethylene (20) sorbitan monooleate. The cells were and incubated with 100 μL of sheep anti-mouse IgC horseradish peroxidase for one hour at room temperature in the dark.
The plate then was washed three times with 200 μL of the above-noted phosphate buffer saline preparation, and then once with 0.1M sodium citrate (pH 4.5). Thereafter, 100 μL of orthophenylenediamine dihydrochloride (OPD, Gibco, Canada Inc.) was added to each well. The plate was agitated on a microplate shaker for 30 minutes in the dark. Color development was monitored at 450 nm using a microplate spectrophotometer.
SAS was used to calculate % inhibition of viral replication and to generate ECl50 values.
The results are illustrated in accompanying FIG. 1.
More explicitly with reference to the isobole method, this method requires experimental data generated for the two test compounds, each alone and in different combinations. In this way selected concentrations of the title compound of example 9 (EC5, EC10, EC20 and EC30) were added to a given concentration of ACV and the EC50 's were evaluated as described previously. For these experiments, the EC5, EC10, EC20 and EC30 of the title compound of example 9 (i.e. the test compound) were derived from inhibition curves previously obtained. An isobologram is generated using for the Y axis a value termed FEC60 (ACV) (which is the ratio of the concentration of ACV required to inhibit HSV replication by 60% in the presence of a fixed concentration of the test compound to the concentration required in the absence of the test compound). This is plotted against a term representing the ratio of the fixed concentration of the test compound to the concentration of the test compound that reduced inhibition of HSV replication in the absence of ACV (the X axis).
The following TABLE III is illustrative of results obtained when combinations of ACV and the title compound of example 9 (TC) were evaluated for their antiherpes activity against HSV-1. […]

[1] = target: T1, HSV-1 ribonucleotide reductase (Human herpesvirus 1, UniProt P08543); experiment: Inhibition of Herpes Simplex Virus (HSV-1) ribonucleotide reductase; assay type: biochemical; conditions: partially purified enzyme from HSV-1 strain F infected BHK-21/C13 cells; mean of four assays; read-out: IC50 (concentration producing 50% of the maximal inhibition of enzyme activity)
T1 construct: HSV-1 ribonucleotide reductase (partially purified) was obtained from quiescent BHK-21/Cl13 cells infected with strain F HSV-1 virus; made in house; host or cells: quiescent BHK-21/C13 hamster cells infected with HSV-1 strain F; native viral enzyme, partially purified
Description: HSV-1 ribonucleotide reductase (partially purified) was obtained from quiescent BHK-21/Cl13 cells infected with strain F HSV-1 virus at 10 plaque forming units/cell as described by E. A. Cohen et al., J. Gen. Virol., 66, 733 (1985).
The assay described by P. Gaudreau et al., J. Biol, Chem., 262, 12413 (1987), is used to evaluate the capability of the compounds of formula 1 to inhibit HSV-1 ribonucleotide reductase activity. The assay results are expressed as the concentration of the compound producing 50% of the maximal inhibition (IC50) of enzyme activity. The number of units of the enzyme preparation used in each assay was constant, based on the specific activity of the enzyme preparation. The results are relative to the activity obtained in control experiments without the test compound and represent the means of four assays that varied less than 10% with each other.

T1 sequence (P08543 whole entry): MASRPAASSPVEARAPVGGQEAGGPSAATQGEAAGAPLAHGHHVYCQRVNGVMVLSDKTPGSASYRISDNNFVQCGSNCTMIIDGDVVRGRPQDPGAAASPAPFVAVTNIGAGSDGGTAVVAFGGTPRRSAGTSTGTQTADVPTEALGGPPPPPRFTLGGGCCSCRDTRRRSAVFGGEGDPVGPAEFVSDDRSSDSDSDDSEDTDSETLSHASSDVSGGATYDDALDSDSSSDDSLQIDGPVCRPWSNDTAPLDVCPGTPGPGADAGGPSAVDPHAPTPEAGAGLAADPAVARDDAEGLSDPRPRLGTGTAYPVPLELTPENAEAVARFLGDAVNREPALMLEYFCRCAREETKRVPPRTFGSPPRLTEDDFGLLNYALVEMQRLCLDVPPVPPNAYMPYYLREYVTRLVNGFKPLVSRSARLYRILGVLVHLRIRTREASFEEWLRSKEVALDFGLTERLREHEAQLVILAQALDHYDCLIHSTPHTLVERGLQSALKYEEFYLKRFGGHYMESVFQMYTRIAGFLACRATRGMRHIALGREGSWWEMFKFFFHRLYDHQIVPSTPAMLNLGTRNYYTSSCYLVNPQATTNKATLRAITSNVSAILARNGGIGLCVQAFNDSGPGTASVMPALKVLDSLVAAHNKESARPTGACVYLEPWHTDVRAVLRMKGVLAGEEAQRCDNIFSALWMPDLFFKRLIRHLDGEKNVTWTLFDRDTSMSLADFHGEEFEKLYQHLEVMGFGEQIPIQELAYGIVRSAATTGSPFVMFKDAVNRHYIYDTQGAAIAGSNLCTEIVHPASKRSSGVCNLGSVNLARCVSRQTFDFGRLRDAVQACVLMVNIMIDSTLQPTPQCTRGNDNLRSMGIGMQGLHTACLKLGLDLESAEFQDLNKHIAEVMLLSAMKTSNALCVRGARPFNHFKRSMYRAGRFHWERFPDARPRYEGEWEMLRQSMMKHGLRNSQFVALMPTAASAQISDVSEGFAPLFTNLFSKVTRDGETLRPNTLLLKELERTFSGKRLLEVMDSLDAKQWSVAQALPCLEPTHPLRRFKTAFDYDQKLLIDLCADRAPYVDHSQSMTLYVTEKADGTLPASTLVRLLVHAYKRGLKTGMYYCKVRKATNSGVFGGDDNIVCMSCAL

For CC[C@@H](NC(=O)[C@@H](NC(=O)[C@@H](CC(=O)[C@@H](NC(=O)[C@H](C(C)C)N(C)C(=O)[C@H](C)CC1CCCCC1)C(C)(C)C)CC(=O)C(C)(C)C)C1(C(=O)O)CCCC1)C(C)(C)C [R^1 =H and R^2 =Me, (3-Cyclohexyl-2(R)-methyl-1-oxopropyl)-(N--Me) Val-Tbg-CH2 --(R)--CH(CH2 C(O)CMe3)--C (O)-Asp(cyPn)-NH--(R)--CH(Et)CMe3], the EC50 (HSV-1 strain F) was 400 nM, the EC50 (HSV-1 KOS strain; compound alone, read-out: EC50) was 473 nM and the “Effect of combining with acyclovir on the EC50 of acyclovir (synergy, isobole method)” value (HSV-1 KOS strain; increasing concentrations of the title compound of example 9) was “proportional lowering of the EC50 of acyclovir”. The IC50 [1] was 147 nM.

With “(3-cyclohexyl-2 (R), 3 (R)-dimethyl-1-oxopropyl)-(N-Me) Val-Tbg-CH2 --(R)--CH (CH2 C(O) CMe3)C(O)-Asp (cyPn)-NH--(R)--CH (Et) CMe3 [R^1 and R^2 =Me]” the EC50 (HSV-1 strain F) was 200 nM and the IC50 [1] was 191 nM.

Compound Nc1nc2c(ncn2COCCO)c(=O)[nH]1 [ACV, acyclovir] has an EC50 (HSV-1 KOS strain; ACV + 0.05 μM of TC, read-out: EC50 of ACV in combination) of 6300 nM, an EC50 (HSV-1 KOS strain; ACV + 0.1 μM of TC, read-out: EC50 of ACV in combination) of 3200 nM and an EC50 (HSV-1 KOS strain; ACV + 0.15 μM of TC, read-out: EC50 of ACV in combination) of 1790 nM. The EC50 (HSV-1 KOS strain; ACV + 0.2 μM of TC, read-out: EC50 of ACV in combination) was 1790 nM, the EC50 (HSV-1 KOS strain; ACV + 0.3 μM of TC, read-out: EC50 of ACV in combination) was 1000 nM and the EC50 (HSV-1 KOS strain; ACV + 0.4 μM of TC, read-out: EC50 of ACV in combination) was 500 nM. The EC50 (HSV-1 KOS strain; compound alone, read-out: EC50) was 6950 nM.

“{3-cyclohexyl-2(S)-(1-methylethyl)-1-oxopropyl}-(N-Me) Val-Tbg-CH2 --(R)--CH(CH2 C(O)CMe3)C(O)-Asp(cypn)-NH--(R)--CH (Et)CMe3 [R^1 =H and R^2 =CHMe2]” was tested, and the EC50 (HSV-1 strain F) was 200 nM and the IC50 [1] was 123 nM.
